Assay results: patent US10188601B2, “Continuous long-term controlled release of telomerase inhibitors” (priority 2013, dated 2019)

How the values were obtained:
[1] = test system: cellular DNA
Description: PdTMPyP4 was dissolved directly into medium as described above. After incubation with graded concentrations of PdTMPyp4 added to the medium for 24 or 48 h, the DNA was extracted and digested. […] Details of the methods used to extract the DNA fraction and prepare the samples for ICP-MS are given in Laster B H, et al. Brachytherapy. 2009; 8:324-30.

[2] = test system: telomerase; details: L428 cells, 24 h incubation, graded concentrations; Pd tag versus H2 tag
Description: L428 cells were incubated for 24 h with graded concentrations of PdTMPyP4 or H2TMPyP4 dissolved in RPMI 1640 complete medium. The activation or inhibition of telomerase was measured using the Telomeric Repeat Amplification Protocol (TRAP) assay. The procedure is detailed in Tichon A, et al, Cytotherapy. 2009; 11:837-48.

[3] = single rod per tumor
Excerpt: One PdTMPyP4 rod, prepared according to the Example 1, was implanted into the KHJJ tumor of each of 4 mice as described in the Example 7 above.
Blood was withdrawn from the junction of the submandibular/facial vein, centrifuged, and the clear supernatant removed, diluted 1:100 and measured in double-distilled water (DDW) as described in the Example 10 below.

[4] = In vitro release of PdTMPyP4 from PLGA rods over time in normal saline; format: physicochemical
Description: Eight rods, two each of matching weights, were placed in individual Eppendorf tubes with 1 ml of normal saline and incubated at 37° C. For measuring PdTMPyP4 release via absorbance, a 10 μl sample were removed and diluted 1:100 with DDW, and absorbance of the resulting solution measured in the spectrophotometer at 415 nm for the first 28 days. […] The removal of a 10 μl sample from the fresh saline solution required a 1:10 dilution in DDW for appropriate reading. […] To compare the release of PdTMPyP4 after the various dilutions, the concentrations were normalized to the dilution factor used during the first 28 days (1:100).

[5] = test system: L428 Hodgkin's lymphoma cells
Description: In these experiments, PdTMPyP4/PLGA rods, manufactured as described in the Example 1, were used to release and maintain the continuous exposure of exponentially-growing L428 Hodgkin's Lymphoma cells to PdTMPyP4 throughout the 8 day experiment. To maintain and encourage exponential growth, cells were split before they neared their maximum density 1.5×10^6 cells/ml. Precautions were taken, in advance, to prevent the dilution of the drug during cell splitting by placing the rods into the medium that would be used when splits were required. Cells were initially seeded into each of 3 different treatment flasks at a cell density of 3.0×10^5 cells/ml in a volume of 25 ml. The cultures were split at 120 and 192 hours. The flasks consisted of:
Fourteen ‘medium-transfer’ flasks were prepared in advance for use during the splitting of the flasks. Twelve (6 each) of these contained 25 ml of complete medium and either 2 PdTMPyP4/PLGA rods or 2 blank PLGA rods.
Two additional flasks contained 25 ml conditioned medium were prepared in advance, by removing from previously grown cells and sterilizing, and whereto either PdTMPyP4/PLGA or 2 PLGA rods were added. This approach permitted the same exponential growth conditions for all treatments even when the flasks were split.
When cells in either flask A, B, or C neared their maximum cell density and required splitting, all flasks were split at this same time and medium from the transfer flasks was added to both the original and new flasks to restore the volume to 25 ml. A 3-ml aliquot of cells was removed from the flasks containing the suspension cells and was counted on a daily basis using a hemocytometer and trypan blue exclusion. The volume removed was replaced with the pretreated medium. […] Cells in each of the split dishes were counted, and counts from all flasks were combined to yield the total number of cells. By combining the cell counts from the split flasks, and using the total cell number, technical errors in counting the cells from the different flasks were reduced.

With `C[n+]1ccc(-c2c3nc(c(-c4cc[n+](C)cc4)c4ccc([n-]4)c(-c4cc[n+](C)cc4)c4nc(c(-c5cc[n+](C)cc5)c5ccc2[n-]5)C=C4)C=C3)cc1.[Pd+2]` [PdTMPyP4, Palladium-tagged tetra (4-N-methylpyridyl) porphyrin] the “effect of Pd tag on DNA uptake of the porphyrin” value ([1]; compared with naive TMPyP4) was “does not alter DNA uptake”, the “uptake in DNA converted to moles” value ([1]; incubation 24 or 48 h with graded concentrations) was “about 1.7×10^−14 mol” and the “measured uptake of Pd atoms in the DNA of the cell” value ([1]; incubation 24 or 48 h with graded concentrations, ICP-MS) was “about 10^9 Pd atoms”. The telomerase activity inhibition [2] was “superior inhibition”, the “plasma levels by the second and third week” value [3] was “restoration of plasma levels to that on day 0” and the “PdTMPyP4 concentration in blood plasma” value ([3]; four mice, weekly measurements) was “negligible concentrations”. For the same molecule, the “duration of gradual and continuous release” value [4] was greater than 30 days, the “time of sudden decrease in cells exposed” value ([5]; 19-day experiment, continuous release from PLGA rods) was “about 200 h” and the “factor by which cell number was lower than with the other treatments” value ([5]; 19-day experiment, from about 200 h through remaining 11 days) was 5-6 times. The “cell number compared to the other treatments at end of experiment” value ([5]; 8 day experiment, 264 h, versus untreated and blank PLGA) was “lower” and the “time to L428 cell lethality after telomerase inhibition” value ([5]; continuous exposure via rods) was “about 8 days”.
